Assay results reported in patent US9415104B2, “Combination therapy to enhance NK cell mediated cytotoxicity” (NOVO NORDISK A/S, priority 2008, dated 2016).

How the values were obtained:
[1] = system: U266 cells; test: Europium release cytotoxicity assay, PBMC as effectors against U266 cells (FIG. 3, FIG. 4)
Procedure: The target cells were U266 cells. […] Lysis of U266 target cells is measured in the presence and absence of 10 μM lenalidomide.
Peripheral blood mononuclear cells (PBMC) were obtained from normal donors following a Ficoll gradient separation. These cells were incubated for 72 hours in lenalidomide (10 μmolL^−1) or DMSO as control, and then used as effector cells against U266 target cells in the presence or absence of 1-7F9 blocking antibody in Europium release cytotoxicity assays. Cytotoxicity assays were performed in the presence or absence of 30 μg/ml 1-7F9. In experiments investigating the combination, PBMC were treated with lenalidomide (10 μmolL^−1) or DMSO (control) for 72 hours, and then used as effector cells in the presence or absence of 1-7F9 (30 μgml^−1) in europium release assay.
Effector cells: PBMC and NK cells were collected from random donors. Target cells: The myeloma (MM) cell line U266 co-expresses class I and II HLA-C ligands. The K562 cell line is negative for HLA class I molecules and acts as negative control for 1-7F9 blocking experiment.
(§1) The Europium release cytotoxicity assay was performed according to the instruction of DELFIA® EuTDA Cytotoxicity AD0116 kit (PerkinElmer).

[2] = system: NK cell receptors NKG2D, NKG2A, KIR2DL1/S1, KIR2DL2/L3; test: NK cell receptor expression by flow-cytometry (FIG. 5); type: cell-based; details: purified NK cells cultured 72 hours in presence or absence of lenalidomide
Procedure: Referring now to FIG. 5. NK cells were purified from buffy coats of normal blood donors by immunomagnetic selection (CD3 depletion followed by CD56 selection) using the autoMACS (Milteny Biotec, Auburn, Calif.). Purified NK cells were cultured in RPMI medium with 10% human AB serum for 72 hours in the presence or absence of lenalidomide. NK cells were then assayed for receptor expression by flow-cytometry.

[3] = system: U266 cells; test: Europium release cytotoxicity assay, U266 target cells pre-incubated with lenalidomide (FIG. 6); type: cell-based, human; details: U266 cultured with lenalidomide (5 µM) for 5 days vs not exposed; different E:T ratios
Procedure: U266 cells were cultured in RPMI medium with 10% human AB serum (complete medium) in the presence or absence of lenalidomide (5 µM) for 5 days, and then used as target cells in Europium release cytotoxicity assays.
as §1

[4] = system: p-SHIP1 (Tyr1020); test: Western blot of cell lysates, densitometry normalized to GAPDH (FIG. 9); details: 10 μmol/L lenalidomide; DMSO = 1.00; NK cells
[5] = system: phospho-p44/42 (Erk1/2) Thr202/Tyr204; test: as above; details: 10 μmol/L lenalidomide; DMSO = 1.00; NK cells
[6] = system: activating ligands MICA, MICA/B, DR4, DR5, ULBP1, ULBP2, PVR and Nectin-2 (CD112) in U266 cells; test: Expression of activating ligands on U266 cells by flow-cytometry (FIG. 7, FIG. 8); details: lenalidomide 5 μM for 5 days; at least 4 independent experiments; paired t-test
Procedure: Briefly, U266 cells were cultured in complete medium in the presence or absence of lenalidomide (5 μM) for 5 days.
In this experiment U266 cells were analyzed as described as in the above. The data were analyzed using the paired t-test.

[7] = system: NK cells; test: Total NK cell numbers in PBMC culture; type: cell-based; details: 10 μmol/L lenalidomide treatment vs DMSO treatment
Text: The target cells were U266 cells.

[8] = biological target: KIR2DL2 (human) (UniProt P43627)
[9] = biological target: KIR2DL3 (human) (UniProt P43628)
[10] = biological target: KIR2DL1 (human) (UniProt P43626)

| Compound | specific lysis of U266 cells ([1]; E:T ratio 60:1, PBMC treated 72 hours with lenalidomide 10 μmolL^−1 or DMSO, 1-7F9 30 μg/ml, DMSO control 19±4%) | killing of U266 cells by PBMC (percent of specific release) ([1]; PBMC treated with 10 μM lenalidomide for 72 h without IL-2, vs DMSO, different E:T ratios) | NK cell induced lysis of U266 cells ([1]; PBMC treated with 10 μmolL^−1 lenalidomide for 72 hours with or without interleukin (IL)-2) | NK cell receptor expression (NKG2D, NKG2A, KIR2DL1, KIR2DL2/3) [2] | susceptibility of U266 target cells to lysis by NK cells [3] | P-SHIP1(Tyr1020)/GAPDH [4] | phospho-p44/42 (Erk1/2) Thr202/Tyr204)/GAPDH [5] | expression of activating ligands on U266 cells [6] | total NK cell numbers in the culture [7] | specific lysis of U266 cells by PBMC, Europium release cytotoxicity assay, E:T ratio of 60:1 (% specific lysis) [8] | specific lysis of U266 cells by PBMC, Europium release cytotoxicity assay, E:T ratio of 60:1 (% specific lysis) [9] | specific lysis of U266 cells by PBMC, Europium release cytotoxicity assay, E:T ratio of 60:1 (% specific lysis) [10] |
| --- | --- | --- | --- | --- | --- | --- | --- | --- | --- | --- | --- | --- |
| Nc1cccc2c1CN(C1CCC(=O)NC1=O)C2=O (stereo not drawn) [lenalidomide, 3-(4-amino-1-oxo-1,3 dihydro-isoindol-2-yl)piperidine-2,6-dione] | 27±1.3% | enhanced cytotoxicity | increased | no effect | more susceptible to lysis | 1.76 | 0.98 | significantly increase the expression of only MICA, DR4, ULBP2, and CD112 | essentially the same | – | – | – |
| 1-7F9 (antibody) | – | – | – | – | – | – | – | – | – | 32 | 32 | 32 |
